# Assay results as given in US20230210864A1, “AGENT FOR PROMOTING CORNEAL ENDOTHELIAL CELL ADHESION” (Senju Pharmaceutical Co., Ltd., priority 2007, published 2023).
# How the values were obtained:
# [1] = tested on: monkey corneal endothelial cells; assay: Density of cultured monkey corneal endothelial cells over repeated passages; type: cell-based, Macaca fascicularis; settings: Y-27632 10 μM, passage repeated 7 times
# Description: From the corneal tissue isolated from Macaca fascicularis euthanized, Descemet's membrane with corneal endothelial cells attached thereto was separated. The Descemet's membrane was incubated together with Dispase II (1.2 U/ml, Roche Applied Science) under the conditions of 37° C., 5% CO2 for 45 min, and the corneal endothelial cells were mechanically separated by a pipetting operation. The separated corneal endothelial cells were centrifuged and seeded on a medium for corneal endothelium. The corneal endothelial cells that reached confluent were incubated with 0.05% trypsin under the conditions of 37° C., 5% CO2 for 10 min, and passage-cultured. A medium for corneal endothelium added with Y-27632 (10 μM) was used for the ROCK inhibitor(+) group and a medium for corneal endothelium without addition of Y-27632 was used for the ROCK inhibitor(−) group. At 72 hr from the start of the culture, the culture medium was exchanged and, after 72 hr, both the ROCK inhibitor(+) group and ROCK inhibitor(−) group were cultured in a normal medium for corneal endothelium free of Y-27632. On every passage, photographs of the cells were taken with a phase contrast microscope, cell density was measured, and the influence of Y-27632 on the density of the cultured monkey corneal endothelial cells was studied.
# [2] = tested on: monkey corneal endothelial cells; assay: Cell cycle of monkey corneal endothelial cells (anti-Ki67 antibody immunostaining and flow cytometry); type: cell-based, Macaca fascicularis; settings: Y-27632 10 μM
# Description: The Macaca fascicularis corneal endothelial cells passage-cultured in the same manner as in Example 6 were subcultured on a slide glass to a dilution of ¼. A medium for corneal endothelium added with Y-27632 (10 μM) was used for the ROCK inhibitor(+) group and a medium for corneal endothelium without addition of Y-27632 was used for the ROCK inhibitor(−) group. On days 1, 2 and 14 of the passage culture, the corneal endothelial cells on the slide glass were fixed with 4% para-formaldehyde at room temperature for 10 min, and immunostained with anti-Ki67 antibody (FIG. 11). Similarly, moreover, the Macaca fascicularis corneal endothelial cells were passage-cultured to a dilution of ¼ in each of the ROCK inhibitor(+) group and ROCK inhibitor(−) group. On days 1 and 2 of the passage culture, the cells were collected using 0.05% trypsin and subjected to flow cytometry using anti-Ki67 antibody, and the cell cycle was examined (FIGS. 12 and 13).
# [3] = tested on: human corneal endothelial cells; assay: Primary culture of human corneal endothelial cells with Y-27632, phase contrast observation; type: cell-based; settings: Y-27632 10 μM
# Description: Of human corneal tissues obtained from the US eye bank, the central part (diameter 7 mm) had been used for corneal transplantation and the remaining surrounding corneal tissue was used. The Descemet's membrane with corneal endothelial cells adhered thereto was separated. For the ROCK inhibitor(+) group, the Descemet's membrane was placed in a medium for corneal endothelium added with Y-27632 (10 μM) and incubated under the conditions of 37° C., 5% CO2 for 10 min. For the ROCK inhibitor(−) group, the membrane was placed in a medium for corneal endothelium without addition of Y-27632 and incubated for 10 min under the same conditions. As the medium for corneal endothelium, the same culture medium as in Example 1 was used. The Descemet's membrane after the incubation was incubated together with Dispase II (1.2 U/ml, Roche Applied Science) under the conditions of 37° C., 5% CO2 for 45 min, and the corneal endothelial cells were mechanically separated by a pipetting operation. The separated corneal endothelial cells were centrifuged and stirred in the media for corneal endothelium with Y-27632(+) and Y-27632(−) to the same concentration, and the cells were seeded on a 48 well plate pre-treated with an FNC coating mix (Athena ES) at a density of about 10000 cells per well. […]
# [4] = tested on: monkey corneal endothelial cells; assay: Apoptosis of monkey corneal endothelial cells (flow cytometry with Annexin V and PI); type: cell-based, Macaca fascicularis; settings: Y-27632 10 μM, day 1 of the passage culture
# Description: The Macaca fascicularis corneal endothelial cells passage-cultured in the same manner as in Example 6 were subcultured to a dilution of ¼. A medium for corneal endothelium added with Y-27632 (10 μM) was used for the ROCK inhibitor(+) group and a medium for corneal endothelium without addition of Y-27632 was used for the ROCK inhibitor(−) group. On day 1 of the passage culture, all the cells including those in the medium were collected using 0.05% trypsin and subjected to flow cytometry using Annexin V and PI (Propidium Iodide), and apoptosis was examined (FIGS. 14 and 15).
# [5] = tested on: rabbit corneal endothelial cells; assay: Culture of rabbit corneal endothelial cells with Y-27632, cells counted by MTS assay; type: cell-based; settings: primary culture, Y-27632 10 μM
# Description: From a rabbit corneal tissue isolated immediately after euthanasia, Descemet's membrane with corneal endothelial cells attached thereto was separated. The Descemet's membrane was incubated together with Dispase II (1.2 U/ml, Roche Applied Science) under the conditions of 37° C., 5% CO2 for 45 min, and the corneal endothelial cells were mechanically separated by a pipetting operation. The separated corneal endothelial cells were centrifuged, the cells of a ROCK inhibitor(+) group were stirred in a medium for corneal endothelium added with Y-27632 (10 μM) and the cells of a ROCK inhibitor(−) group were stirred in a medium for corneal endothelium without addition of Y-27632, to the same concentration, and the cells were seeded on a 96 well plate at a density of about 2000 cells per well. As a medium for corneal endothelium, a culture medium (DMEM, Gibco Invitrogen) added with 1% fetal bovine serum and […] bFGF (Gibco Invitrogen) was used. The plate was pre-treated with an FNC coating mix (Athena ES) for 10 min. […] From day 1 to day 3 after the start of the culture, the cells were counted every 24 hr by MTS ([3-(4,5-dimethylthiazol-2-yl)-5-(3-carboxymethoxyphenyl)-2-(4-sulfophenyl)-2H-tetrazolium]) assay using CellTiter 96 (registered trade mark) AQueous One Solution Cell Proliferation (Promega) (FIG. 2).
# [6] = days 1 and 2 of the passage culture
compound,measurement,setting,value
"CC(N)[C@H]1CC[C@H](C(=O)Nc2ccncc2)CC1 (single isomer, unassigned; (+)) [Y-27632, (+)-trans-4-(1-aminoethyl)-1-(4-pyridylcarbamoyl)cyclohexane]","cell density throughout the passage culture, compared to ROCK inhibitor(−) group",[1],higher cell density
same,"number of Ki67 positive cells by immunostaining, compared to ROCK inhibitor(−) group","[2]; day 14, almost confluent",less than that of the ROCK inhibitor(−) group
same,"Ki67 positive cells by flow cytometry, compared to ROCK inhibitor(−) group",[2]; [6],contained many Ki67 positive cells
same,"Ki67 positive cells by immunostaining, compared to ROCK inhibitor(−) group",[2]; [6],contained many Ki67 positive cells
same,cell layer morphology and density on day 7 after the start of the culture,[3],a confluent and highly dense single cell layer consisting of cells (uniform polygonal cells) similar to normal corneal endothelial cells was formed
same,"number of apoptotic cells per 1×10^4 cells, compared to ROCK inhibitor(−) group",[4],significant decrease
same,"ratio of apoptotic cells to the entire cells, compared to ROCK inhibitor(−) group",[4],significant decrease
same,cell adhesion in 24 hr (day 1) after cell seeding as compared to the ROCK inhibitor(−) group,[5],about 2.8 fold
same,"cell growth at day 3 when the cells reached confluent, difference from ROCK inhibitor(−) group",[5]; day 3,a significant difference was not found
